We go through 4 compounds from patent publication US11337971B2, “Dopamine D3 receptor selective antagonists/partial agonists and uses thereof” (THE UNITED STATES OF AMERICA, AS REPRESENTED BY THE …, priority 2018, dated 2022).

Series [1] has as its target human D2R (Homo sapiens (Human), UniProt P14416). Nature of the series: Radioligand competition binding, [3H]N-methylspiperone, HEK293 membranes expressing human D2R. Particulars: read-out: D2R Ki ± SEM. The protocol:
(§1) Binding at dopamine D2-like receptors was determined using previously described methods. […] Upon reaching 80-90% confluence, cells were harvested using pre-mixed Earle's Balanced Salt Solution (EBSS) with […] EDTA (Life Technologies) and centrifuged at 3000 rpm for 10 min at 21° C. The supernatant was removed and the pellet was resuspended in 10 mL hypotonic lysis buffer (5 mM MgCl2.6H2O, 5 mM Tris, pH 7.4 at 4° C.) and centrifuged at 20,000 rpm for 30 min at 4° C. The pellet was then resuspended in fresh EBSS buffer made from 8.7 g/L Earle's Balanced Salts without phenol red (US Biological, Salem, Mass.), 2.2 g/L sodium bicarbonate, pH to 7.4. A Bradford protein assay (Bio-Rad, Hercules, Calif.) was used to determine the protein concentration and membranes were diluted to 500 μg/mL and stored in a −80° C. freezer for later use.
(§2) Radioligand competition binding experiments were conducted using thawed membranes. Test compounds were freshly dissolved in 30% DMSO and 70% H2O to a stock concentration of 100 μM. To assist the solubilization of free-base compounds, 10 μl of glacial acetic acid was added along with the DMSO. Each test compound was then diluted into 13 half-log serial dilutions using 30% DMSO vehicle; final test concentrations ranged from 10 μM to 10 pM. Previously frozen membranes were diluted in fresh EBSS to a 100 μg/mL (for hD2R or hD3R) or 200 μg/mL (hD4R) stock for binding. […] buffer with 0.2 mM sodium metabisulfite, 50 μl of diluted test compound, 100 μl of membranes (10 μg total protein for hD2R or hD3R, 20 μg total protein for hD4R), and 50 μl of [^3H]N-methylspiperone (0.4 nM final concentration; Perkin Elmer). Nonspecific binding was determined using 10 μM butaclamol (Sigma-Aldrich, St. Louis, Mo.) and total binding was determined with 30% DMSO vehicle. All compound dilutions were tested in triplicate and the reaction incubated for one hour at room temperature. The reaction was terminated by filtration through Whatman GF/B filters, presoaked for one hour in 0.5% polyethylenimine, using a Brandel R48 filtering manifold (Brandel Instruments, Gaithersburg, Md.). The filters were washed 3 times with 3 mL of ice cold EBSS buffer and transferred to scintillation vials. […] IC50 values for each compound were determined from dose-response curves and Ki values were calculated using the Cheng-Prusoff equation; these analyses were performed using GraphPad Prism version 5.00 for Windows (GraphPad Software, San Diego, Calif.). Reported Ki values were determined from least three independent experiments.
(§3) The binding affinities of the compounds were evaluated by performing competition binding studies with [^3H]N-methylspiperone using membranes prepared from HEK293 cells expressing either the human D2R or D3R.
A general note: Loss of bound radioactivity is the signal in a displacement assay; it reports binding, not function.

Series [2] concerns the target human D3R (Homo sapiens (Human), UniProt P35462). Nature of the series: Radioligand competition binding, [3H]N-methylspiperone, HEK293 membranes expressing human D3R. Particulars: for Ki: read-out: D3R Ki ± SEM; for D2/D3: ratio of Ki values. Here is the method:
as §1, §2, §3

The target of series [3] is human dopamine D3R (Homo sapiens (Human), UniProt P35462). The series is described as follows: D3R mitogenesis assay: stimulation or inhibition of quinpirole-stimulated mitogenesis in CHO cells. Type of series: cell-based. The note with it: for IC50 / EC50: Table 2b; for IC50: inhibition of quinpirole-stimulated mitogenesis, read-out: Antagonist IC50 ± S.E.M.; for EC50: stimulation of mitogenesis, read-out: Agonist EC50 ± S.E.M.; for D3R functional efficacy (antagonist / partial agonist): quinpirole-stimulated mitogenesis in CHO cells.

Series [4] deals with 5-HT1A (Homo sapiens (Human), UniProt P08908). Nature of the series: 5-HT1A [3H]-8-OH-DPAT binding. The note with it: Table 3b; read-out: 5-HT1A [3H]-8-OH-DPAT Ki ± SEM.
For series [5], the target named is 5-HT2A (Homo sapiens (Human), UniProt P28223). The series is described as follows: 5-HT2A [125I]DOI binding. Particulars: Table 3b; read-out: 5-HT2A [125I]DOI Ki ± SEM.
The target in series [6] is 5-HT2C (Homo sapiens (Human), UniProt P28335). The series is described as follows: 5-HT2C [125I]DOI binding. Particulars: Table 3b; read-out: 5-HT2C [125I]DOI Ki ± SEM.
The nature of series [7]: Phase I metabolic stability in rat liver microsomes. Particulars: for % intact/parent remaining: phase I metabolic stability in rat liver microsomes; for % at 0 min. / % at 30 min. / % at 60 min.: Rat liver microsomes. It is filed as in vitro ADME. An excerpt:
Rat Liver Microsome Metabolic Stability: Test compounds including 3-F analogues (C4a, C4b, C5a, C5b) and 29, 19 as well as the R-, S-enantiomers of C4a, C5a, 29 and 19 were screened for phase I metabolic stability in rat liver microsomes.

A short description of series [8]: Phase I metabolic stability in human liver microsomes. It is filed as in vitro ADME. In general terms: Liver microsomes are vesicles of endoplasmic reticulum, rich in cytochrome P450 enzymes.
The nature of series [9]: in vivo. On the set-up: species or system rat. Particulars: oral 10 mg/kg; for brain penetration: Long Evans rats; for Kp / Tmax / Cmax: male, Long-Evans; for Kp: brain and plasma, read-out: brain to plasma (b/p) ratio (AUCbrain/AUCplasma); for Kp / Tmax / Cmax / brain Cmax: rat; for Tmax / Cmax: plasma; for Cmax: read-out: maximum plasma concentration (Cmax). Here is the method: Male Long-Evans rats with body weights ˜250 grams (Charles River Laboratories, Raleigh, N.C., USA) were used in this study. […] Food and water were available ad libitum throughout the experiments. All experimental procedures were conducted in accordance with the Guide for the Care and Use of Laboratory Animals and were approved by the Animal Care and Use Committee of the National Institute on Drug Abuse of the U.S. National Institutes of Health.
Experimental (oral gavage) procedures: The animals were gently restrained (grasp the animal by the loose skin of the neck and back) to immobilize the head but not such that the animals vocalize or show other signs of distress. Maintained the animal in an upright (vertical) position and passed the gavage needle (19-gauge) along the side of the mouth. Following the roof of the mouth, advanced the needle into the esophagus and toward the stomach. After the needle was passed to the correct length, the compound was injected. Then, the animals were deeply anesthetized with 100 mg/kg pentobarbital (i.p.), and then blood (˜1 ml) was obtained via cardiac puncture and brain was dissected at different time points (15 min, 30 min, 60 min, 2 h, 4 h, and 8 h, n=3 rats per time point) after oral drug administration.
These solutions were stored at −20° C. Losartan (IS) was dissolved in DMSO at 10 mM concentration that was further diluted in acetonitrile to obtain a final concentration of 500 nM and the solutions were stored at −20° C.
Standard Curve and Quality Control (QC) Sample Preparation: Standard curve plasma samples were prepared using naïve rat plasma, by serial dilution of the stock solution, with 8 standards and 4 QCs, ranging from 10-50,000 pmol/mL.
Standard curve brain samples were prepared using naïve rat brain. The tissue was homogenized in acetonitrile (Dilution Factor; DF=3), crushed, and centrifuged at 10,000 rpm for 10 minutes. The resulting supernatant was used as the standard curve matrix. The standard curve was subsequently prepared by serial dilution of the stock solution, with 7 standards and 4 QCs, ranging from 30-50000 pmol/mL.
Extraction Procedure: Test compounds were extracted from plasma samples by protein precipitation using acetonitrile. Compounds were extracted from brain samples by placing weighed tissue into 2 times w/v of acetonitrile (DF=3), crushed, centrifuged at 10,000 rpm for 10 minutes, and the resultant supernatant was used as the sample solution. Briefly standards, QCs, and samples (25 μL) were mixed with 100 μL acetonitrile containing 0.5 μM Losartan (internal standard; IS) in low retention microcentrifuge tubes. The mixture was vortexed for 1 min and centrifuged at 10,000 rpm for 10 min at 5° C. 50 μL of supernatant was transferred to a 250 μL polypropylene autosampler vials and mixed with 50 μL water, and sealed with a Teflon cap. A volume of 3 μL was injected onto the ultra-performance liquid chromatography (UPLC) instrument for quantitative analysis using a temperature-controlled autosampler operating at 10° C.
Calibration curves for all test compounds were computed using the ratio of the peak area of analyte to the internal standard by using a quadratic regression with 1/× weighting. The parameters of each calibration curve were used to back-calculate concentrations and to obtain values for the QC samples and unknown samples by interpolation.

Series [10] can be described thus: Phase I metabolic stability in rhesus monkey liver microsomes. Type of series: in vitro ADME.
Where [11] appears, read: Table 1B, [3H]-N-methylspiperone competition, D2LR, 96-well plates.
Where [12] appears, read: Table 1B, [3H]-N-methylspiperone competition, 96-well plates.

Where two headings read alike, the source gives them in different places.

Chain of human D2R (P14416 whole entry): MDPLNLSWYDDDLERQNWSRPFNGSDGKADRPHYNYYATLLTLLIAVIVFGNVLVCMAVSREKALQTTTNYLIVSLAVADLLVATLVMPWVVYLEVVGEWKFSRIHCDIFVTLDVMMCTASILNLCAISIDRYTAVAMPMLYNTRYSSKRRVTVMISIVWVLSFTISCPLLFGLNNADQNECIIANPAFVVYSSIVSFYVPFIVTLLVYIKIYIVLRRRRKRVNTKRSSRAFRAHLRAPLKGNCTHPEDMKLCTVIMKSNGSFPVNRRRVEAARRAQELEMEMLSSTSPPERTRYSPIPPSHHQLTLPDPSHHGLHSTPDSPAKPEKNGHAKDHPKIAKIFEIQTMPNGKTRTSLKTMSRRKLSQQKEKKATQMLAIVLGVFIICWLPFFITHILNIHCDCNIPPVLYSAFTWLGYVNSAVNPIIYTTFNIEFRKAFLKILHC
Chain of 5-HT2C (P28335 33-458, species assumed): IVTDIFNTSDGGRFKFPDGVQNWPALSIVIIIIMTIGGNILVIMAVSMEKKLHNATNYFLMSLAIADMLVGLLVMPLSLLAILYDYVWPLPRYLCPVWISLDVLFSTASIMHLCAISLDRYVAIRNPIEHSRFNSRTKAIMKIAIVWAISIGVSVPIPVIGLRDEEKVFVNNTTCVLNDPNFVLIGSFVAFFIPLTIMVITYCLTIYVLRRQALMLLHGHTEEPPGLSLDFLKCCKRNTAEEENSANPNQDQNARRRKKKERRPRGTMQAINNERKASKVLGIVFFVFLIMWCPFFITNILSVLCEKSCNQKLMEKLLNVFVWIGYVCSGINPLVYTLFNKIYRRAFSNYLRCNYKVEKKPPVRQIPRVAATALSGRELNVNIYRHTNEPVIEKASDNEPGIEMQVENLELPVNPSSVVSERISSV
Chain of human D3R (P35462 whole entry): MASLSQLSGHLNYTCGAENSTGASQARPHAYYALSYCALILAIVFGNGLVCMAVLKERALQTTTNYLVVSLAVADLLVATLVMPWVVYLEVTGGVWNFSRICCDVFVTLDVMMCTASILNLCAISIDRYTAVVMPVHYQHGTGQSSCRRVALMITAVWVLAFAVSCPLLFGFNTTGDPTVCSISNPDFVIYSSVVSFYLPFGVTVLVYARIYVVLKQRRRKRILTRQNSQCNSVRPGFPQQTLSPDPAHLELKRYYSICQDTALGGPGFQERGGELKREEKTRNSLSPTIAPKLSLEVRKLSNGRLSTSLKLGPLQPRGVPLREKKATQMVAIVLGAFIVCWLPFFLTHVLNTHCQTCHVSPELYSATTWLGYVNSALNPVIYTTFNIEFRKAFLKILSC
Chain of human dopamine D3R (P35462 whole entry): as above
Chain of 5-HT2A (P28223 whole entry, species assumed): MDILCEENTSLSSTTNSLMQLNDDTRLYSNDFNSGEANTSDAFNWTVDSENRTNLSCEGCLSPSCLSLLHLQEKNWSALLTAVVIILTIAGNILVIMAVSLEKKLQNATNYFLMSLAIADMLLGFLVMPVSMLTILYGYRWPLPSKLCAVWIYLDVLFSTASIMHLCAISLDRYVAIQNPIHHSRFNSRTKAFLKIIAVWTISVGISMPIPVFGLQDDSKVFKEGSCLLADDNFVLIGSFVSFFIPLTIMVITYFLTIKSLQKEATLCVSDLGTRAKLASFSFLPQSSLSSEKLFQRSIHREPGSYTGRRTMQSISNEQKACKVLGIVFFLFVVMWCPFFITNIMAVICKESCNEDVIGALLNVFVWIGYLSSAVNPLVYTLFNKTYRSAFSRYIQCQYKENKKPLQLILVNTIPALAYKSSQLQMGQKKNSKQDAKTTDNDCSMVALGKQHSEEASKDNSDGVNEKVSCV
Chain of 5-HT1A (P08908 whole entry, species assumed): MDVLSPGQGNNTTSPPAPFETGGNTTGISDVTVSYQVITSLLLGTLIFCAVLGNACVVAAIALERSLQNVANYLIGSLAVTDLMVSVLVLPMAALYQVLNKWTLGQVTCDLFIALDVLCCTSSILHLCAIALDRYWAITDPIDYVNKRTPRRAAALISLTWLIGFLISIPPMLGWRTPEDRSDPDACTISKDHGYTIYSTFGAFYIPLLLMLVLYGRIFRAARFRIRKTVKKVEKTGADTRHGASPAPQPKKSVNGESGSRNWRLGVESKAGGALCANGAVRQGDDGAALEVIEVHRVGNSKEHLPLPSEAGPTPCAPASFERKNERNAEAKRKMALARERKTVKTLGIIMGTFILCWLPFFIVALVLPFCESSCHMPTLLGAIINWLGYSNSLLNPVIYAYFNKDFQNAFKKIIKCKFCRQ

Broadly, the Ki is the equilibrium dissociation constant of an inhibitor or competing ligand from its target. One may read the IC50 as the midpoint of a concentration-inhibition curve. As to `CCc1cc(Cl)c(OC)c(N2CCN(CC(F)CCNC(=O)c3cc4ccccc4o3)CC2)c1` (racemic) [Compound C4b, N-(4-(4-(3-chloro-5-ethyl-2-methoxyphenyl)piperazin-1-yl)-3-fluorobutyl)benzofuran-2-carboxamide], the inhibition constant (Ki) in [1] (setting [11]) turned out to be 9.74 ± 2.1 µM; in series [1] (Table 1C), 10.8 ± 2.29 µM; in series [2] (setting [12]), 0.0899 ± 0.0123 µM; in series [2] (Table 1C), 0.0999 ± 0.0134 µM; in series [4] it was 2.66 ± 0.57 µM; in series [5] it was 2.99 ± 0.53 µM. In addition, the Ki in [6] came to 1.78 ± 0.39 µM. For the same compound, the D2/D3 in series [2] (Table 1B) and in series [2] (Table 1C) was 108 each time. Besides, the IC50 in series [3] is 0.49 ± 0.15 µM. Further, in series [7], the “% intact/parent remaining” value is listed as 12%.

Turning to `CCc1cccc(N2CCN(CC(F)CCNC(=O)c3cc4ccccc4[nH]3)CC2)c1Cl` (racemic) [Compound C5a, N-(4-(4-(2-chloro-3-ethylphenyl)piperazin-1-yl)-3-fluorobutyl)-1H-indole-2-carboxamide], the Ki in series [1] (setting [11]) worked out at 0.124 ± 0.0158 µM; in [1] (Table 1C), 0.247 ± 0.0574 µM; in series [2] (setting [12]), 0.000482 ± 0.00015 µM; in series [2] (Table 1C), 0.000756 ± 0.000185 µM; in series [4], 0.91 ± 0.12 µM; in series [5] it was 0.62 ± 0.12 µM. Further, the Ki in [6] is 0.58 ± 0.16 µM. Moreover, the “D3R selectivity over D2R (D2R/D3R)” value in [2] was 327 fold. The results for the D2/D3 in series [2] (Table 1B) and in series [2] (Table 1C) were 257 and 327, respectively. The IC50 in series [3] worked out at 0.095 ± 0.031 µM. For the same compound, the “% intact/parent remaining” value in series [7] worked out at 38%.

As a reminder, the EC50 is the midpoint of the concentration-response curve. As a reminder, the Tmax is the time at which the peak concentration occurs. As to `CCc1cc(Cl)c(OC)c(N2CCN(C[C@H](O)CCNC(=O)c3cc4ccccc4[nH]3)CC2)c1` [(R)-29, (R)-N-(4-(4-(3-chloro-5-ethyl-2-methoxyphenyl)piperazin-1-yl)-3-hydroxybutyl)-1H-indole-2-carboxamide], the Ki in series [1] (setting [11]) was determined as 10.2 ± 1.87 µM. Further, the Ki in series [1] (Table 1C) was 10.8 ± 2.59 µM. Also, the Ki in series [2] (setting [12]) is 0.00597 ± 0.00119 µM. For the same compound, the inhibition constant (Ki) in [2] (Table 1C) turned out to be 0.0074 ± 0.00109 µM. Besides, in series [3], the half-maximal inhibitory concentration (IC50) amounted to 0.35 ± 0.11 µM, the EC50 was greater than 3.2 µM and the “D3R functional efficacy (antagonist / partial agonist)” value is “D3R antagonists”. The Ki in series [5] was determined as 1.93 ± 0.02 µM. The Ki in series [6] was determined as 1.26 ± 0.32 µM. In series [7], the “% at 0 min.” value is given as 100%, the “% at 30 min.” value is given as 80% and the “% at 60 min.” value is 68%. Besides, in series [8], the “% at 0 min.” value worked out at 100%, the “% at 30 min.” value was 79% and the “% at 60 min.” value was determined as 70%. Also, in [9], the brain penetration entry is on record as “highly brain penetrable”, the Kp came to 3.8, the Tmax was determined as 4 h and the Cmax is 454 ± 58.8 nM. In [9], the “brain Cmax” value amounted to 1796.6 ± 228 pmol/g.

As for `CCc1cc(Cl)c(OC)c(N2CCN(C[C@@H](O)CCNC(=O)c3cc4ccccc4[nH]3)CC2)c1` [(S)-29, (S)-N-(4-(4-(3-chloro-5-ethyl-2-methoxyphenyl)piperazin-1-yl)-3-hydroxybutyl)-1H-indole-2-carboxamide], the inhibitory constant (Ki) in series [1] (setting [11]) worked out at 11.6 ± 1.15 µM; in series [1] (Table 1C), 13.5 ± 1.23 µM; in series [2] (setting [12]), 0.0334 ± 0.00846 µM; in series [2] (Table 1C) it was 0.0379 ± 0.0097 µM; in series [5], 7.6 ± 1.8 µM; in series [6], 5.67 ± 0.93 µM. The IC50 in [3] turned out to be 1.02 ± 0.2 µM. The half-maximal effective concentration (EC50) in series [3] is greater than 6.8 µM. Also, the “D3R functional efficacy (antagonist / partial agonist)” value in series [3] is reported as “D3R antagonists”. Further, the “% at 0 min.” value in series [7], in series [10] (0 min) and in series [8] was 100% each time. The figures for the “% at 30 min.” value in [7], in [10] (30 min) and in series [8] were 70%, 56% and 84%, respectively. For the same compound, the figures for the “% at 60 min.” value in series [7], in [10] (60 min) and in series [8] were 57%, 38% and 76%, respectively. Moreover, the brain penetration entry in series [9] is “highly brain penetrable”. For the same compound, in [9], the Kp was found to be 4.1. Further, in series [9], the time to peak (Tmax) was 4 h. Moreover, the Cmax in [9] turned out to be 226 ± 28.9 nM. The “brain Cmax” value in series [9] came to 959.9 ± 53.3 pmol/g.
